Measured values reported in patent US20130071328A1, “Propynoic Acid Carbamoyl Methyl-Amides and Pharmaceutical Compositions and Methods Based Thereon” (UNIVERSITY OF SOUTHERN CALIFORNIA, priority 2011, published 2013).
“Also recorded” adds a separate entry of the source.

Experiments:
[1] = tested on: HT29 colon cancer cell line; assay: MTT cytotoxicity assay, HT29; assay type: cell-based; conditions: Homo sapiens, HT-29, 72 h exposure
From the text: (§1) The human breast cancer cell line MDA-MB-435 and the colon cancer cell line HT29 were purchased from the American Type Cell Culture (Manassas, Va.). Colon cancer cell lines HCT116 p53^+/+ and HCT116 p53^−/− were kindly provided by Dr. Bert Vogelstein (Johns Hopkins Medical Institutions, Baltimore, Md.). The human ovarian carcinoma cell line (HEY), naturally resistant to cisplatin (CDDP), was kindly provided by Dr. Louis Dubeau (USC Norris Cancer Center). The bladder cancer cell lines were kindly provided by Dr. Richard Cote (USC Keck School of Medicine). Cells were maintained as monolayer cultures in the appropriate media: RPMI-1640 (HT29, HCT116 p53^+/+, HCT116 p53^−/−, and HEY cell lines) or DMEM (MDA-MB-435 and UMUC3 cell lines) supplemented with 10% fetal bovine serum (FBS) (HyClone, Road Logan, Utah) at 37° C. in a humidified atmosphere of 5% CO2. To remove the adherent cells from the flask for subculture and counting, cells were washed with PBS without calcium or magnesium, incubated with a small volume of 1×trypsin-EDTA solution (Sigma-Aldrich, St. Louis, Mo.) for 5 min, resuspended with fresh culture medium, and centrifuged at 1200 rpm for 5 min. All experiments were performed using cells in exponential growth phase. Cells were routinely checked for Mycoplasma contamination using PlasmaTest kit (InvivoGen, San Diego, Calif.).
(§2) Cytotoxicity was assessed by MTT assay as described previously. 43 In brief, cells were seeded in 96-well microtiter plates and allowed to attach overnight. Cells were subsequently treated with continuous exposure to corresponding drugs for 72 h. At the end of treatments, an MTT solution (at a final concentration of 0.5 mg/mL) was added to each well, and cells were incubated for 4 h at 37° C. After removal of the supernatant, DMSO was added, and the absorbance was read at 570 nm. All assays were done in triplicate. The IC50 was then determined for each drug from a plot of log(drug concentration) versus percentage of cells killed.

[2] = tested on: HEY ovarian cancer cell line; assay: Cytotoxicity assay, HEY; assay type: cell-based; conditions: Homo sapiens; MTT, 72 h exposure (Table 2)
From the text: as §1, §2

[3] = tested on: HCT116 p53^+/+ colon cancer cell line; assay: MTT cytotoxicity assay, HCT116 p53+/+; assay type: cell-based; conditions: Homo sapiens, HCT-116, 72 h exposure
From the text: as §1, §2

[4] = tested on: 5637 bladder cancer cell line; assay: MTT cytotoxicity assay, 5637; assay type: cell-based, human; conditions: for IC50: Homo sapiens, 72 h exposure
From the text: as §1, §2

[5] = tested on: HCT116 p53^−/− colon cancer cell line; assay: MTT cytotoxicity assay, HCT116 p53-/-; assay type: cell-based; conditions: Homo sapiens, HCT-116, 72 h exposure
From the text: as §1, §2

[6] = tested on: doxorubicin-resistant NCI/ADR-RES ovarian cancer cell line; assay: Cytotoxicity assay, NCI/ADR-RES; assay type: cell-based; conditions: Homo sapiens, MTT, 72 h exposure (Table 2)
Description: as §2

MDA-MB-435 cells [7] = assay: Apoptosis assay, annexin V/propidium iodide flow cytometry; assay type: cell-based, human; conditions: for induction of apoptosis: 24 and 48 hours
Description: To quantify drug-induced apoptosis, annexin V/propidium iodide staining was performed and analyzed by flow cytometry. MDA-MB-435 cells were treated with 10 μM compound 1, 2, or 4 for 24 and 48 h. After treatment, both floating and adherent cells were combined and subjected to annexin V/propidium iodide staining using an annexin V-FITC apoptosis detection kit (Oncogene Research Products, San Diego, Calif.) according to manufacturer's recommendations. Untreated control cells (48 h) were maintained in parallel to drugtreated groups. Double staining was used to distinguish between viable, early apoptotic, and necrotic or late apoptotic cells. The resulting fluorescence (FITC-A channel for green fluorescence and PE-A channel for red fluorescence) was measured by flow cytometry using a BD LSRII flow cytometer (BD Biosciences, San Jose, Calif.).

MDA-MB-435 xenograft = assay: MDA-MB-435 mouse xenograft model; assay type: in vivo
Description: To investigate the in vivo efficacy of these compounds, we selected compound 2 and evaluated its anticancer activity in a nude mouse xenograft model using MDA-MB-435 cells. Animals were treated with daily intraperitoneal (i.p.) injections of DMSO in sesame oil (vehicle control) or compound 2 at 10 mg/kg for 9 days, followed by 20 mg/kg for 5 days and concluding with 40 mg/kg for 12 days. After 26 days of dosing, the drug treatment was discontinued. Mice were monitored daily for an additional 17 days, and tumors were measured twice per week. FIG. 4A summarizes the tumor volume (mean±SEM) of the treatment groups throughout the observation time.
Sixteen virgin female athymic nude (nu/nu) mice (Simonsen Laboratory Inc., Gilroy, Calif.) were used for in vivo efficacy testing. […]
Human breast cancer MDA-MB-435 cells in logarithmic phase growth from in vitro cell culture were inoculated subcutaneously on the rear flank of the mice (1.5×10^6 cells/mouse) under aseptic conditions. Tumor growth was assessed twice weekly by measuring tumor diameters with a Vernier caliper (length×width). Tumor weight was calculated according to the formula: TW (mg)=tumor volume (mm^3)=d^2×D/2, where d and D are the shortest and longest diameters, respectively. […]
Eight mice were assigned to each group and the results were expressed as the mean±SEM. […]

[8] = tested on: UMUC3 bladder cancer cell line; assay: MTT cytotoxicity assay, UMUC3; assay type: cell-based; conditions: Homo sapiens, 72 h exposure
From the text: as §1, §2

MDA-MB-435 cells [9] = assay: Mitochondrial superoxide production (MitoSOX Red); assay type: cell-based, human; conditions: IC50 or 3×IC50, 24 hours
Description: After drug treatments, a solution of 5 μM MitoSOX Red mitochondrial superoxide indicator (Invitrogen, Carlsbad, Calif.) was added, and cells were incubated for 10 min at 37° C. Cells were then washed three times with Hank's balanced salt solution (HBSS) to remove excess MitoSOX. After washing, cells were either observed under the fluorescence microscope or collected by trypsinization, washed twice with HBSS, and measured for superoxide production using a BD LSRII flow cytometer (BD Biosciences, San Jose, Calif., USA). Data were analyzed with the BD FACSDiva software package (BD Biosciences, San Jose, Calif., USA).

[10] = Pharmacokinetics study after i.p. administration; assay type: in vivo, mice; conditions: mouse, ip
Description: To assess the efficacy, tolerability, and pharmacokinetics of these novel compounds following i.p. administration, the pharmacokinetic profile of compounds 4 and 9 was evaluated (Table 3). Mice were treated with compounds 4 and 9 via i.p. injection and serial blood sampling was determined at indicated times after administration. The plasma concentration was determined using a validated liquid chromatography mass spectrometry (LC-MS) method where the lowest level of quantification was 1 ng/mL. One hour following i.p. administration of compounds 4 and 9, their concentrations in the blood were 344 and 6.2 ng/mL, respectively. […] The half-lives of compounds 4 and 9 via i.p. administration were determined to be approximately 3.5 and 9.3 hours, respectively, when a non-compartmental pharmacokinetics analysis was used. The favorable pharmacokinetics profile of compounds 4 and 9 is consistent with the ADMET predictions described previously.
Preliminary pharmacokinetics of compounds 4 and 9 were performed using 18 mice, each time point consisting of two mice. Mice were stratified to various doses given as an i.p. injection of compounds 4 and 9 (24 mg/kg). At the specified time points following drug administration, blood was collected with heparinized syringes. The samples were allowed to settle in 500 μL eppendorf vials and then centrifuged at 1500 rpm for 10 min. The plasma was removed, transferred into new eppendorf tube, and frozen at −80° C. until analysis.

panel of cancer cells = assay: MTT cytotoxicity of compound 4 across tested cell lines (FIG. 2B); assay type: cell-based; conditions: Homo sapiens, MTT assays
Description: as §2

[11] = tested on: MDA-MB-435 breast cancer cell line; assay: MTT cytotoxicity assay, MDA-MB-435; assay type: cell-based, human
From the text: as §1, §2

MDA-MB-435 cells [12] = assay: Cell cycle analysis by propidium iodide flow cytometry; assay type: cell-based, human
Description: Cell cycle perturbations were analyzed by propidium iodide DNA staining. Exponentially growing MDA-MB-435 cells were treated with 5 μM compound 4 for 6, 12, and 24 h. At the end of treatment, cells were collected and washed with 1×PBS after a gentle centrifugation at 1500 rpm for 5 min. Cells were then thoroughly resuspended in 0.5 mL of PBS and fixed in 70% ethanol overnight at 4° C. Ethanol-fixed cells were centrifuged at 3000 rpm for 5 min and washed twice in PBS to remove residual ethanol. For cell cycle analysis, the pellets were resuspended in 1 mL of PBS containing 0.02 mg/mL of propidium iodide and 0.5 mg/mL of DNase-free RNase A and incubated at 37° C. for 30 min. Cell cycle profiles were obtained using a BD LSRII flow cytometer (BD Biosciences, San Jose, Calif.). Propidium iodide was excited using a 488 nm blue argon laser. Resulting fluorescence was measured using a PMT detector equipped with 550 nm long pass dichroic mirror and 575/26 bandpass filter. Data were analyzed with the ModFit LT software package (Verify Software House, Inc., Topsham, Me.).

| SMILES | IC50 [1] | IC50 [2] | IC50 [3] | IC50 [4] | IC50 [5] | IC50 [6] | percentage of late apoptotic cells (MDA-MB-435 cells [7]; 10 μM, 48 hours) | induction of apoptosis (MDA-MB-435 cells [7]) | IC50 [8] | mitochondrial superoxide production, flow cytometry (MDA-MB-435 cells [9]) | other results |
| --- | --- | --- | --- | --- | --- | --- | --- | --- | --- | --- | --- |
| C#CC(=O)N(c1cccc(C(F)(F)F)c1)C(C(=O)NC1CCCC1)c1cccc(OC)c1 (stereo not drawn) [Compound 2, N-[2-(Cyclopentylamino)-1-(3-methoxyphenyl)-2-oxoethyl]-N-[3-(trifluoromethyl)phenyl]Propynamide] | 7.2 ± 0.2 µM | 5.2 ± 3.4 µM | > 10 µM | 0.6 ± 0.4 µM | 8.8 ± 0.4 µM | 0.2 ± 0.1 µM | 37% | induce apoptosis | > 20 µM | induce significant amounts of superoxide | induction of early apoptosis (MDA-MB-435 cells [7]; 10 μM, 24 hours): failed to induce early apoptosis; increase in early apoptotic cells (MDA-MB-435 cells [7]; 10 μM, 48 h): 8%; tumor burden (tumor volume) (MDA-MB-435 xenograft; i.p. daily 10 mg/kg 9 days, 20 mg/kg 5 days, 40 mg/kg 12 days): significantly reduced tumor burden; average body weight after treatment (MDA-MB-435 xenograft; mean±SD, after treatment, control 28±2 g): 29 ± 2 g |
| C#CC(=O)N(c1ccc(-n2cnnn2)c(C)c1)C(C(=O)NC1CCCC1)c1ccccc1F (stereo not drawn) [Compound 4, N-[2-(Cyclopentylamino)-1-(2-fluorophenyl)-2-oxoethyl]-N-[3-methyl-4-(1H-tetraazol-1-yl)phenyl]Propynamide] | 1.8 ± 1.7 µM | 1.5 ± 0.8 µM | 6.3 ± 1.8 µM | 0.7 ± 0.5 µM | 5.5 ± 0.7 µM | 1 ± 0.3 µM | 62% | induce apoptosis | 6.3 ± 1 µM | induce significant amounts of superoxide | cytotoxic potency in 5637 cells [4]: remarkable potency; AUC ([10]; in vivo, 24 mg/kg): 520 ng·h/mL; Cmax ([10]; in vivo, 24 mg/kg): 344 ng/mL; Kel ([10]; in vivo, 24 mg/kg): 0.206 h⁻¹; Tmax ([10]; in vivo, 24 mg/kg): 1.0 h; half-life ([10]; in vivo, 24 mg/kg): ~3.5 h; t1/2 ([10]; in vivo, 24 mg/kg): 3.5 h; concentration at 1 h ([10]; plasma, mice, 24 mg/kg i.p., 1 hour, read-out: concentration in the blood one hour following i.p. administration): 344 ng/mL; percentage of late apoptotic cells (MDA-MB-435 cells [7]; 10 μM, 24 hours): 27%; percentage of early apoptotic cells (MDA-MB-435 cells [7]; 10 μM, 48 hours): 24%; IC50 (panel of cancer cells): 1 to 2.5 µM; cytotoxic potency in MDA-MB-435 cells [11]: one of the most active compounds; cell cycle perturbation (MDA-MB-435 cells [12]; 5 μM, 6, 12 and 24 hours): induced both S- and G2/M-arrest; also recorded: block cell cycle progression at both S and G2/M phases; increase in number of cells retained in G2/M phase vs untreated control (MDA-MB-435 cells [12]; 5 μM, 24 hours): 7%; increase in number of cells retained in S phase vs untreated control (MDA-MB-435 cells [12]; 5 μM, 24 hours): 10% |
